Experimental data taken from patent US20050148495A1, “Methods and materials including for treating acne” (priority 2003, published 2005).
In brackets after ≈: the same amount, converted by molar mass. Like-named read-outs stand apart in the source and are kept apart here. Non-standard residues stand in square brackets, D forms with d. Residues, ends and D or L forms follow the SMILES beside them. d1Nal = N[C@H](Cc1cccc2ccccc12)C(=O)O

Tests used:
P. granulosum = format: cell-based, Propionibacterium granulosum
Description: This example addresses studies relating to the antimicrobial activities of XMP.629. An in vitro assessment of antibiotic activity in XMP.629 and various known antibiotics against a representative panel of bacterial strains associated with acne was conducted. A broth dilution methodology was employed using guidelines established by National Committee for Clinical Laboratory Standards (NCCLS) for anaerobic organisms to establish an antibacterial profile for XMP.629. Assays to determine the minimal bactericidal concentrations (MBC) and minimal inhibitory concentration (MIC) were conducted for XMP.629 and other known antibiotics. Furthermore, test to determine post antibiotic effect (PAE) of XMP.629 were done.
Inoculum from a representative panel of bacterial strains associated with acne, such as P. acnes, P. avidum, P. granulosum, and Staphylococcus epidermis was prepared by suspending approximately 5-10 isolated bacterial colonies in pre-reduced MicroScan® Inoculum Water (Dade Behring, Deerfield, Ill.), and growing the bacterial suspension to log phase (approximately 48 hrs). An inoculum of between 1-5×10^6/mL was achieved by adding 100 μL of the suspension to 25 mL Brain Heart Infusion Broth (BHI) (Anaerobe Systems, Morgan Hill, Calif.).
A stock solution of XMP.629 dissolved in water at a concentration of 4.0 mg/mL was prepared. Dilute solutions of XMP.629 at concentrations ranging from about 1.25 to about 160 μg/mL were made in either water or formulation buffer (130 mM sodium chloride, 0.2% P103 (poloxamer 333), and 0.10% EDTA, pH 7.3). Aqueous stock solutions of clindamycin and erythromycin were prepared in water.
Each tube, containing a final volume of 1 mL, was mixed by vortexing. Control tubes containing only water or formulation buffer were prepared for each isolate. Initial growth controls were determined by removing 10 μL from the water control tube and diluting it by 100 fold. From this dilution, 10 μL was used for inoculation and for spreading over the surface onto Laked Blood Agar (LBA) (Anaerobe Systems, Morgan Hill, Calif.) plates. The tubes and plates were incubated in an anaerobic atmosphere at 37° C. for 48 h. After incubation, the tubes were mixed and 10 μL samples were removed from each tube for additional plating. These plates were then further incubated in an anaerobic atmosphere at 37° C. for 48-72 h and the resulting colonies were counted. After adjusting for the dilution factor, the lowest concentration of drug or combination of drugs reducing the inoculum by ≧99.9% was considered to be the minimum bactericidal concentration (MBC). MBC50 and 90 values represent where 50 and 90%, respectively, of the tested strain's MBC values are equal to or less than the indicated concentration. The lowest concentration of antibiotic(s) that inhibited visible growth in the culture tubes was considered to be the minimal inhibitory concentration (MIC).
For comparison, additional Propionibacterium strains, were tested.

[1] = Additional studies: intravenous administration safety; format: in vivo; settings: intravenously
Description: In additional studies in an acute peritonitis model, mice were challenged intraperitoneally with 1.4×10^7 CFU E. coli 07:K1 and treated intraperitoneally with XMP.629 at 1, 3, or 10 mg/kg or saline. Mice were observed twice daily and mortality was recorded for seven days. Statistical comparisons between the treatment groups and saline were performed using a Chi Square test. […] At 10 mg/kg, 87% protection was observed. In additional studies, XMP.629 was safely administered at a dose of 20 mg/kg intravenously.

[2] = system: Salmonella typhimurium TA98, TA100, TA1535, TA1537 and Escherichia coli WP2uvrA; assay: Ames test: Salmonella-Escherichia coli/mammalian-microsome reverse mutation assay; format: cell-based; settings: with and without S9
Description: XMP.629 was evaluated in an initial mutagenicity assay. In this Salmonella-Escherchia coli/mammalian-microsome reverse mutation assay, XMP.629 was evaluated for the ability to induce reverse mutations at the histidine locus in four tester strains of Salmonella-typhimurium (TA98, TA100, TA1535 and TA1537) and at the tryptophan locus in Escherichia coli tester strain, WP2uvrA, in the presence or absence of an exogenous metabolic activation system ([…]). The experimental materials, methods and procedures were based on those described by Ames et al., 1975 (Mutat. Res. 31; 347-364) and Green and Muriel, 1976 (Mutat. Res. 38: 3-32). The assay design was based on the OECD Guideline 471, updated and adopted Jul. 21, 1997. Based on the results of an initial dose rangefinding study, XMP.629 was evaluated using (a) four standard Salmonella tester strains with the rat hepatic S9 (microsomal) fraction at doses of 1.00, 3.33, 10.0, 33.3, 66.7 and 100 μg/plate, and without S9 at doses of 1.00, 3.33, 10.0, 25.0, 33.3 and 66.7 μg/plate; and (b) tester strain WP2uvrA with S9 at doses of 3.33, 10.0, 33.3, 100, 250 and 333 μg/plate and without S9 at doses of 1.00, 3.33, 10.0, 33.3, 66.7 and 100 μg/plate. XMP.629 was re-evaluated in an independent confirmatory experiment under similar conditions at lower doses.
In addition, the test article was freely soluble at all doses evaluated with and without S9. […]

Clostridium difficile = Clostridium difficile 9689
P. acnes = settings: each strain: UPC686, ATCC 6919 intermediate-erythromycin, UP2022
[3] = RMA 5740, Formulation Buffer Solvent, Study 1
[4] = RMA 5740, Formulation Buffer Solvent, Study 2
[5] = RMA 5740, Water Solvent, Study 1
[6] = RMA 5740, Water Solvent, Study 2
[7] = RMA 6867, Formulation Buffer Solvent, Study 1
[8] = RMA 6867, Formulation Buffer Solvent, Study 2
[9] = RMA 6867, Water Solvent, Study 1
[10] = RMA 6867, Water Solvent, Study 2
[11] = RMA 7093, Formulation Buffer Solvent, Study 1
[12] = RMA 7093, Formulation Buffer Solvent, Study 2
[13] = RMA 7093, Water Solvent, Study 1
[14] = RMA 7093, Water Solvent, Study 2
[15] = RMA 11787, Formulation Buffer Solvent, Study 1
[16] = RMA 11787, Formulation Buffer Solvent, Study 2
[17] = RMA 11787, Water Solvent, Study 1
[18] = RMA 11787, Water Solvent, Study 2

CC(C)C[C@@H](NC(=O)[C@H](N)CCCCN)C(=O)N[C@H](Cc1ccccc1)C(=O)N[C@H](CCCNC(=N)N)C(=O)N[C@H](Cc1cccc2ccccc12)C(=O)N[C@H](CCC(N)=O)C(=O)N[C@H](C)C(=O)N[C@H](CCCCN)C(=O)N[C@H](Cc1cccc2ccccc12)C(N)=O [XMP.629, NH2-lys-leu-phe-arg-(3-(1-naphthyl)-ala)-gln-ala-lys-(3-(1-naphthyl)-ala)-CONH2] (H-[dK][dL][dF][dR][d1Nal][dQ][dA][dK][d1Nal]-NH2)
MBC50 (P. granulosum; P. granulosum, 4 strains): 0.25 µg/mL
MBC90 (P. granulosum; P. granulosum, 4 strains): 4 µg/mL
MBC Range (P. granulosum; P. granulosum, 4 strains, in µg/mL): 0.25-4
MBC (P. granulosum; [3]): 2 µg/mL
MIC (P. granulosum; [3]): 1 µg/mL
MBC (P. granulosum; [4]): 0.25 µg/mL
MIC (P. granulosum; [4]): 0.25 µg/mL
MBC (P. granulosum; [5]): 4 µg/mL
MIC (P. granulosum; [5]): 2 µg/mL
MBC (P. granulosum; [6]): 1 µg/mL
MIC (P. granulosum; [6]): 1 µg/mL
MBC (P. granulosum; [7]): 2 µg/mL
MIC (P. granulosum; [7]): 0.5 µg/mL
MBC (P. granulosum; [8]): 4 µg/mL
MIC (P. granulosum; [8]): 4 µg/mL
MBC (P. granulosum; [9]): 2 µg/mL
MIC (P. granulosum; [9]): 1 µg/mL
MBC (P. granulosum; [10]): 4 µg/mL
MIC (P. granulosum; [10]): 4 µg/mL
MBC (P. granulosum; [11]): 2 µg/mL
MIC (P. granulosum; [11]): 1 µg/mL
MBC (P. granulosum; [12]): 0.25 µg/mL
MIC (P. granulosum; [12]): 0.25 µg/mL
MBC (P. granulosum; [13]): 2 µg/mL
MIC (P. granulosum; [13]): 2 µg/mL
MBC (P. granulosum; [14]): 0.5 µg/mL
MIC (P. granulosum; [14]): 1 µg/mL
MBC (P. granulosum; [15]): 2 µg/mL
MIC (P. granulosum; [15]): 2 µg/mL
MBC (P. granulosum; [16]): 0.25 µg/mL
MIC (P. granulosum; [16]): 0.25 µg/mL
MBC (P. granulosum; [17]): 2 µg/mL
MIC (P. granulosum; [17]): 2 µg/mL
MBC (P. granulosum; [18]): 1 µg/mL
MIC (P. granulosum; [18]): 1 µg/mL
dose safely administered [1]: 20 mg/kg
reverse mutation assay result [2]: negative
Minimum Inhibitory Concentrations (Clostridium difficile): 2.00 µg/mL
MBC (P. acnes): 1 µg/mL (≈ 0.779 µM)
